One assay deals with dephosphorylated BTK (Homo sapiens (Human), UniProt Q06187). The assay can be described thus: BTK Activity Inhibition Test (mobility shift assay). It is filed as biochemical. Conditions: 200 μM ATP, read-out: Inhibitory Activity on BTK. In short, it runs like this:
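Biotinylated human BTK was dephosphorylated with λ phosphatase and assayed by mobility shift, with FITC-SRCtide as substrate in 20 mM HEPES pH 7.5, 0.01% Triton X-100 and 2 mM DTT. The substrate mix held 4 μM substrate, 20 mM MgCl2 and 200 μM ATP, and the enzyme solution held 0.46 nM BTK (stock levels, not final). After 2 h at room temperature, % inhibition was derived from P/(P+S) and IC50 by log-concentration regression.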

Another assay has as its target BTK (Homo sapiens (Human), UniProt Q06187). The assay can be described thus: Intracellular BTK Auto-Phosphorylation Activity Inhibition Test in Ramos cells. Conditions: test compound 0.03 μM, anti-IgM stimulation, pY223, read-out: Inhibitory Activity on BTK-phosphorization. The assay is classed as cell-based. As for the experimental part:
Ramos cells (2G6.4C10, ATCC No. CRL-1923) were cultured in a T75 flask containing RPMI-1640 medium (GIBCO, # A10491-01) supplemented with 10% FBS (AusGene) and 1% penicillin-streptomycin (Nacalai Tesque, Inc.) (hereinafter referred to as growth medium) in a 5% CO2 incubator.
The cultured Ramos cells were diluted to a cell density of 7.5×10^6 cells/mL with a serum-free RPMI-1640 (hereinafter referred to as medium) and kept at 37° C. for 45 minutes. The cell suspension was dispensed in 1 mL aliquots into 2.0 mL tubes. A 0.03 mM solution of the test substance in DMSO was diluted with the medium to make a 0.09 μM test compound solution, 500 μL of which was then added to the tubes and the incubation was conducted at 37° C. for 1 hour in the presence of the test compound at a final concentration of 0.03 μM. Thereafter, the anti-IgM antibody (Invitrogen, H15100) which had been diluted with the medium was added at a final concentration of 10 μg/mL, and the incubation was conducted at 37° C. for 10 minutes.
To the pellets obtained by recovering the cells via centrifugation, 100 μL of a lysis buffer [RIPA Buffer(×1)(Cell Signaling Technology, Inc.) supplemented with 1% Phosphatase inhibitor Cacktail 3 (Sigma Corporation, No. P0044), 1% Phosphatase inhibitor Cacktail (Nacalai Tesque, Inc., No. 07575) and 1 mM phenylmethylsulfonyl fluoride (PMSF)] was added and stirred gently and then allowed to stand for 10 minutes. The supernatant was recovered by centrifugation (15,000 rpm, 15 minutes) and the protein level was quantified. The portion was mixed with the SDS-sample buffer, allowed to react for 5 minutes at 95° C. to denature the protein, thereby obtaining a sample solution. Each 5 μL of the sample solutions was applied to each well containing a 5 to 20% gradient acrylamide gel (Nacalai Tesque, Inc., No. 13064-04) and electrophoresis was conducted. Thereafter, iBlot gel transfer system (Life Technologies Corporation) was used to transfer the proteins in the gel onto a PVDF membrane.
The PVDF membrane after transfer was blocked with 2% ECL prime blocking Reagent (GE Healthcare) and thereafter the reaction was conducted overnight at 4° C. using anti-BTK mouse antibody (BD transduction laboratory, No. 611116) or anti-phosphorylated BTK rabbit antibody (pY223, EPITOMICS, No. 2207-1) as a primary antibody. The unreacted primary antibody was washed with a TBST buffer (10 mM Tris-HCl (pH 7.5), 150 mM NaCl, 0.1% Tween 20) and then the reaction was conducted for 1 hour at room temperature in a TBST buffer supplemented with 2% ECL prime blocking Reagent using HRP-labeled anti-mouse IgG horse antibody (Cell Signaling Technology, No. 7076) or anti-rabbit IgG goat antibody (Cell Signaling Technology, No. 7074) as a secondary antibody. After washing the unreacted secondary antibody with the TBST buffer, Chemi-Lumi One Super (Nacalai Tesque, Inc.) was used to conduct a reaction in accordance with the attached protocol, and then the respective bands as chemiluminescences were detected with a CCD camera (GE Healthcare ImageQuant LAS 500). […] Each phosphorylated BTK band was corrected based on the total BTK.
The intracellular BTK autophosphorylation inhibiting activity was indicated with the mark “***” when 90% or more, with the mark “**” when 70% or more and less than 90%, and with the mark “*” when 50% or more and less than 70%.

The next assay deals with wild type BTK [BTK(WT)] (Homo sapiens (Human), UniProt Q06187). The assay can be described thus: C481S Mutant BTK Inhibitory Activity Test, wild type BTK (mobility shift assay). It is filed as biochemical. Conditions: 120 μM ATP.
For assay [1], the target named is C481S mutant BTK [BTK(C481S)] (Homo sapiens (Human), UniProt Q06187, C481S). The assay can be described thus: C481S Mutant BTK Inhibitory Activity Test (mobility shift assay). It is filed as biochemical. Conditions: for IC50: C481S mutant BTK, 100 μM ATP; for C481S mutation-resistance: IC50[BTK(C481S)]/IC50[BTK(WT)].
The test system of a further assay is OCI-Ly10 cells. The assay can be described thus: Proliferation-Inhibitory Test Against Diffuse Large-Cell B-Cell Lymphoma OCI-Ly10 Strain. It is filed as cell-based. Particulars: Homo sapiens, 96 hours, alamarBlue. The method, boiled down:
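In IMDM with 20% FBS, OCI-Ly10 cells (20000 cells/well) were exposed to compound at 0.9 nM to 30000 nM (0.3% DMSO final) for 96 hours. Viability was then read with alamarBlue reagent.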
On the technique in general: The colour change of resazurin is a common sign of viable cells or microbes.

For three molecules, IC50, inhibition and C481S mutation-resistance results are on record in patent US10793575B2, “Oxoisoquinoline derivatives” (CARNA BIOSCIENCES, INC., priority 2016, dated 2020).

Chain of C481S mutant BTK [BTK(C481S)] (Q06187 whole entry C481S): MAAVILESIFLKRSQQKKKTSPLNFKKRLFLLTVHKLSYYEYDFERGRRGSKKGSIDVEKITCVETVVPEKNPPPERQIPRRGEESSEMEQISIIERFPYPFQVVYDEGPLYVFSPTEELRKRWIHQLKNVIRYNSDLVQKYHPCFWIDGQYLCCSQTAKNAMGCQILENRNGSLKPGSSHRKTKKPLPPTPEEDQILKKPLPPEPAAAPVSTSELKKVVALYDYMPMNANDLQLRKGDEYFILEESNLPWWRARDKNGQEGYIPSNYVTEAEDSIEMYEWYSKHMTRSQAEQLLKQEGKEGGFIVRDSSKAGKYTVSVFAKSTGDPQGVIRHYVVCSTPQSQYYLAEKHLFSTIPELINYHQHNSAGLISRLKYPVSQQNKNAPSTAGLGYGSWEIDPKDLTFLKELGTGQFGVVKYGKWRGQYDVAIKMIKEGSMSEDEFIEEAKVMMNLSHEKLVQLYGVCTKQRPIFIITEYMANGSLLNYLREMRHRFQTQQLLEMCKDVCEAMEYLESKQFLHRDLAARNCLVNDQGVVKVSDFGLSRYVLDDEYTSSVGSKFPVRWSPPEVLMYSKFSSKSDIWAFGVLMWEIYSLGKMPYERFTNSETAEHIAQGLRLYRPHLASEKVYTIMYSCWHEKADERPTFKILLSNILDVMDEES
Chain of wild type BTK [BTK(WT)] (Q06187 whole entry): as the sequence (Q06187 whole entry C481S) above, with S481C counted along it
Chain of BTK (Q06187 whole entry): as the sequence (Q06187 whole entry C481S) above, with S481C counted along it
Chain of dephosphorylated BTK (Q06187 whole entry): as the sequence (Q06187 whole entry C481S) above, with S481C counted along it

`Nc1nc(-c2cccc(-n3ccc4cc(C5CC5)cc(F)c4c3=O)c2CO)c2nc(-c3ccccc3)[nH]c2n1` [Example 2, 2-[3-(2-amino-8-phenyl-9H-purin-6-yl)-2-(hydroxymethyl)phenyl]-6-cyclopropyl-8-fluoroisoquinolin-1(2H)-one]: the IC50 was < 10 nM on dephosphorylated BTK, 0.97 nM at wild type BTK [BTK(WT)], 0.99 nM in assay [1] and 68 nM with OCI-Ly10 cells. Further, the inhibition at 0.03 µM at BTK was ≥ 90%. The C481S mutation-resistance in assay [1] is 1.0.

Turning to `Cn1cc(-c2cc3c(-c4cccc(-n5ccc6cc(C7CC7)cc(F)c6c5=O)c4CO)nc(N)nc3[nH]2)cn1` [Example 13, 2-{3-[2-amino-6-(1-methyl-1H-pyrazol-4-yl)-7H-pyrrolo[2,3-d]pyrimidin-4-yl]-2-(hydroxymethyl)phenyl}-6-cyclopropyl-8-fluoroisoquinolin-1(2H)-one], the IC50 at dephosphorylated BTK was < 10 nM; on wild type BTK [BTK(WT)] it was 0.49 nM; in assay [1], 0.6 nM; in the assay on OCI-Ly10 cells, 27 nM. Besides, at BTK, the inhibition at 0.03 µM was ≥ 90%. In assay [1], the C481S mutation-resistance amounted to 1.2.

Regarding `Nc1nc(-c2cccc(-n3ccc4cc(C5CC5)cc(F)c4c3=O)c2CO)c2cc(C3=CCN(C4COC4)CC3)[nH]c2n1` [Example 23, 2-(3-{2-amino-6-[1-(oxetan-3-yl)-1,2,3,6-tetrahydropyridin-4-yl]-7H-pyrrolo[2,3-d]pyrimidin-4-yl}-2-(hydroxymethyl)phenyl)-6-cyclopropyl-8-fluoroisoquinolin-1(2H)-one], the IC50 on dephosphorylated BTK is < 10 nM; on wild type BTK [BTK(WT)], 0.46 nM; in assay [1], 0.99 nM; in the assay with OCI-Ly10 cells, 20 nM. Also, the inhibition at 0.03 µM on BTK is ≥ 90%. For the same molecule, the C481S mutation-resistance in assay [1] stood at 2.2.
